Data published in patent US9193697B2, “Oxazole derivatives useful as modulators of FAAH” (MERCK SHARP & DOHME CORP., priority 2010, dated 2015).

What was measured:
[1] = target: T1, human FAAH (Fatty Acid Amide Hydrolase) (Homo sapiens (Human), UniProt O00519); test: FAAH inhibition, human FAAH CHO whole cell format; type: cell-based
[2] = target: T1, human FAAH (Fatty Acid Amide Hydrolase); test: FAAH inhibition, human FAAH CHO cell lysate (AAMCA fluorescence); type: biochemical
Source text: To assist in assay development stable cell lines for human, murine and rat full length FAAH were developed. […] The full length FAAH was subcloned into the mammalian expression vector, pcDEF.neo, using XbaI and EcoRI restriction sites and used for stable cell line generation.
The full length murine FAAH was subcloned into the mammalian expression vector, pcDEFneo using either EcoRI (murine) or KpnI and EcoRI (rat) restriction sites. Chinese hamster ovary cells (CHO) were transfected following manufacturers protocol (AMAXA). Forty eight hours post transfection, cells were trypsinized and transferred to 96 well plates in Iscove's DMEM media supplemented with 2 mM Glutamine, 10% fetal calf serum, 1 mg/ml geneticin and HT Supplement (0.1 mM sodium hypoxanthine, 0.016 mM thymidine) in order to isolate single clones. […] Following removal of tissue culture media cells were dislodged following addition of Cellstripper (Mediatech, Inc. Manassas, Va.) and transferred to 96 well black clear bottom assay plate, centrifuged at 1,000 rpm for 3 mins and media removed and replaced with assay buffer (50 mM Tris pH8.0, 1 mM EDTA, 0.1% fatty acid free BSA). The reaction was initiated by addition of fluorescent substrate, AMC Arachidonoyl Amide (Cayman Chemical, Ann Arbor, Mich.) to 1 μM and reaction allowed to proceed for 2 hours at room temperature. Release of fluorescence was monitored in a CytoFluor Multiplate Reader.
CHO cells expressing FAAH were used to prepare either crude cell lysate or microsome fractions. To harvest cells, tissue culture media was decanted, the monolayer washed three times with Ca^++Mg^++ free PBS and cells recovered after 15 min in enzyme free dissociation media (Millipore Corp, Billerica, Mass.). Cells were collected by centrifuging at 2000 rpm for 15 min, and the cell pellet re-suspended with 50 mM HEPES (pH 7.4) containing 1 mM EDTA and the protease inhibitors aprotinin (1 mg/ml) and leupeptin (100 μM). The suspension was sonicated at 4° C. and the cell lysate recovered after centrifuging at 12,000×g (14,600 rpm, SS34 rotor) for 20 min at 4° C. to form a crude pellet of cell debris, nuclei, peroxisomes, lysosomes, and mitochondria; the supernatant or cell lysate was used for FAAH enzyme assay. In some eases, microsomes fractions enriched in FAAH were prepared by centrifuging the cell lysate further at 27,000 rpm (100,000×g) in SW28 rotor for 50 minutes at 4° C. The pellet containing FAAH-enriched microsomes was re-suspend in 50 mM HEPES, (pH 7.4) 1 mM EDTA, and any remaining DNA sheared by passage of material through a 23 gauge needle and aliquots of enzyme were store at −80° C. prior to use.
Assays are performed on either cell lysate or microsome fractions prepared as described or in whole cell format employing either the fluorescent substrate AAMCA (Cayman chemical, Ann Arbor, Mich.,) or ^3H-anandamide ([ETHANOLAMINE-1-3H] American Radiolabeled Chemicals; 1 mCi/ml). […] AAMCA substrate was used to achieve a final concentration of 1 μM and reaction allowed to proceed at room temperature for 1-3 hours. […] Whole cell assay is conducted with cells harvested after rinsing tissue culture flasks three times with Ca^++Mg^++ free PBS, incubating for 10 min in Enzyme free dissociation media and centrifuging for 5 minutes at 1,000 rpm in table top centrifuge. Cells are resuspended in assay buffer at desired cell number in (4×10^4 cells/assay in 96-well format; 1×10^4 cells/assay in 384-well format) and assayed as described.
Alternatively, assays are performed using anandamide [ethanolamine 1-^3H] (specific activity of 10 Ci/mmol) diluted with cold anandamide to achieve a final assay concentration of 1 μM anandamide (˜50,000 cpm). Enzyme (CHO cell lysate, brain or liver homogenate) is incubated in assay buffer (50 mM Phosphate, pH 8.0, 1 mM EDTA, 200 mM KCl, 0.2% glycerol, 0.1% fatty acid free BSA) with inhibitor at 25° C. for 30 minutes.

T1 sequence (O00519 whole entry): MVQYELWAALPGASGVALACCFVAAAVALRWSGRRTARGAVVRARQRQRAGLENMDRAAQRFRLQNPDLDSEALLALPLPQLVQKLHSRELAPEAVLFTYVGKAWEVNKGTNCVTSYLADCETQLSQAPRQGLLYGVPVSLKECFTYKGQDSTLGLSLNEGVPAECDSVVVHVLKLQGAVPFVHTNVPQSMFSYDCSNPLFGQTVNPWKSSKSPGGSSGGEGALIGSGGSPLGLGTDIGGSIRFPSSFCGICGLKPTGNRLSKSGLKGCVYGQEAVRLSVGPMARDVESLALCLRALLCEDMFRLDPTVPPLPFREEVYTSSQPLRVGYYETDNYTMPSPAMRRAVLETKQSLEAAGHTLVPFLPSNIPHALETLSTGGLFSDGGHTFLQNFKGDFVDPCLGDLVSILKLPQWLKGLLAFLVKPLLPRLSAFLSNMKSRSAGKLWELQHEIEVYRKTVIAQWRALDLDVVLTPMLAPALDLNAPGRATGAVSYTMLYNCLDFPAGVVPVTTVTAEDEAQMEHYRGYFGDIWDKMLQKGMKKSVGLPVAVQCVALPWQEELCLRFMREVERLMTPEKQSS

Row | IC50 [1] | IC50 [2] | Structure (SMILES)
1 | 279 nM | 113 nM | Clc1ccc(Sc2oc(C3CCOCC3)nc2-c2cnc3cc[nH]c3c2)cc1 [Example B5.12, 6-{5-[(4-chlorophenyl)sulfanyl]-2-(tetrahydro-2H-pyran-4-yl)-1,3-oxazol-4-yl}-1H-pyrrolo[3,2-b]pyridine]
2 | 847 nM | 320 nM | COC(=O)Cn1cc(-c2nc(C3CCOCC3)oc2Sc2ccc(Cl)cc2)cn1 [Example B5.13, methyl (4-{5-[(4-chlorophenyl)sulfanyl]-2-(tetrahydro-2H-pyran-4-yl)-1,3-oxazol-4-yl}-1H-pyrazol-1-yl)acetate]
3 | ≥ 10000 nM | 4530 nM | Clc1ccc(Sc2oc(C3CCOCC3)nc2C2=CCCNC2)cc1 [Example B5.15, 5-{5-[(4-chlorophenyl)sulfanyl]-2-(tetrahydro-2H-pyran-4-yl)-1,3-oxazol-4-yl}-1,2,3,6-tetrahydropyridine]
4 | 105 nM | 11.9 nM | C[S+]([O-])c1ccc(-c2nc(C3=CCCCC3)oc2Sc2ccc(Cl)cc2)cc1 (stereo not drawn) [Example C6.1, 5-[(4-chlorophenyl)sulfanyl]-2-(cyclohex-1-en-1-yl)-4-[4-(methylsulfinyl)phenyl]-1,3-oxazole]
5 | 47.2 nM | 8.68 nM | C[S+]([O-])c1ccc(-c2nc(C3=CCC(O)CC3)oc2Sc2ccc(Cl)cc2)cc1 (stereo not drawn) [Example C6.2, 4-{5-[(4-Chlorophenyl)sulfanyl]-4-[4-(methylsulfinyl)phenyl]-1,3-oxazol-2-yl}cyclohex-3-en-1-ol]
6 | 31 nM | 15.9 nM | C[S+]([O-])c1ccc(-c2nc(C3=CCOCC3)oc2Sc2ccc(Cl)cc2)cc1 (stereo not drawn) [Example C6.3, 5-[(4-chlorophenyl)sulfanyl]-2-(3,6-dihydro-2H-pyran-4-yl)-4-[4-(methylsulfinyl)phenyl]-1,3-oxazole]
